Data on two molecules can be found in patent publication US8163805B2, “Small molecule antagonists of Bcl-2 family proteins” (The Regents of the University of Michigan, priority 2001, dated 2012).

Where only a bound is given, the exact number is not on record here.

Series [1] deals with UM-SCC-23. Briefly: 6-day MTT cell growth, UM-SCC-23. The class given is cell-based, human. The note with it: read-out: IC50, inhibition of cell growth. How it is done: (§1) UM-SCC and human fibroblast cell lines were continuously exposed to varying concentrations of (−)-gossypol in 6-day MTT cell survival assays. Control wells contained media (DMEM) with vehicle alone. For each data point n=5.
(§2) Ten squamous cell carcinoma cell lines established at the University of Michigan (UM-SCC) and three human fibroblast lines were grown in Dulbecco's modified Eagle's medium (DMEM) supplemented with 10% fetal bovine serum. UM-SCC cell lines originated from the larynx (n=2; UM-SCC-12, -23), oral cavity/oropharynx (n=5; UM-SCC-1, -6, -14A, -74B, -81B), hypopharynx (n=1; UM-SCC-22A) and metastases from laryngeal cancers (n=2; UM-SCC-17B, -25). Human fibroblast cell lines originated from surgical specimens (fibroblast cell lines 2 and 3) and neonatal foreskin samples (fibroblast cell line 1).
(§3) Logarithmically growing cell lines were cultured, washed, counted, and plated at 5,000-15,000 cells per well in duplicate wells of 96-well plates and incubated in DMEM overnight. […] The MTT assay measures cell survival based on mitochondrial conversion of MTT from a soluble tetrazolium salt into an insoluble colored formazan precipitate, which is dissolved in dimethyl sulfoxide and quantitated by spectrophotometry. […] Percent absorbance relative to control was plotted as a linear function of drug concentration.

In series [2] the test system is UM-SCC-1. Briefly: 6-day MTT cell growth, UM-SCC-1. It is filed as cell-based, human. The following applies: read-out: IC50, inhibition of cell growth. How it is done:
as §1, §2, §3

For series [3], the system named is UM-SCC-6. Briefly: 6-day MTT cell growth, UM-SCC-6. It is filed as cell-based, human. The note with it: read-out: IC50, inhibition of cell growth. Here is the method:
as §1, §2, §3

The test system of series [4] is UM-SCC-22A. Briefly: 6-day MTT cell growth, UM-SCC-22A. The note with it: read-out: IC50, inhibition of cell growth. It is filed as cell-based, human. Here is the method:
as §1, §2, §3

Series [5] has as its system UM-SCC-12. Briefly: 6-day MTT cell growth, UM-SCC-12. The class given is cell-based, human. The note with it: read-out: IC50, inhibition of cell growth. Here is the method: as §1, §2, §3
Series [6] concerns UM-SCC-81B. Briefly: 6-day MTT cell growth, UM-SCC-81B. It is filed as cell-based, human. The note with it: read-out: IC50, inhibition of cell growth. How it is done:
as §1, §2, §3

The subject of series [7] is UM-SCC-17B. Briefly: 6-day MTT cell growth, UM-SCC-17B. It is filed as cell-based, human. The following applies: read-out: IC50, inhibition of cell growth. Here is the method:
as §1, §2, §3

For series [8], the system named is UM-SCC-14A. Briefly: 6-day MTT cell growth, UM-SCC-14A. The note with it: read-out: IC50, inhibition of cell growth. It is filed as cell-based, human. Here is the method:
as §1, §2, §3

Series [9] relates to UM-SCC-74B. Briefly: 6-day MTT cell growth, UM-SCC-74B. It is filed as cell-based, human. The note with it: read-out: IC50, inhibition of cell growth. Here is the method:
as §1, §2, §3

Series [10] concerns UM-SCC-25. Briefly: 6-day MTT cell growth, UM-SCC-25. It is filed as cell-based, human. The following applies: read-out: IC50, inhibition of cell growth. Here is the method:
as §1, §2, §3

In series [11] the test system is Fib-1 (fibroblast cell line 1). Briefly: 6-day MTT cell growth, Fib-1. The class given is cell-based, human. The following applies: read-out: IC50, inhibition of cell growth. How it is done: as §1, §2, §3
Series [12] concerns Fib-2 (fibroblast cell line 2). Briefly: 6-day MTT cell growth, Fib-2. The following applies: read-out: IC50, inhibition of cell growth. It is filed as cell-based, human. How it is done:
as §1, §2, §3

In series [13] the test system is Fib-3 (fibroblast cell line 3). Briefly: 6-day MTT cell growth, Fib-3. The class given is cell-based, human. The note with it: read-out: IC50, inhibition of cell growth. How it is done: as §1, §2, §3
The subject of series [14] is PC-3 human prostate cancer bilateral xenografts. Briefly: PC-3 xenograft, (−)-gossypol alone and with cisplatin (Table 11). The class given is in vivo, NCr-nu nude mouse. The following applies: mouse, in vivo.
Series [15] deals with colon cancer cell line HT-29 xenograft. The following applies: Table 12; cisplatin 10 mg/kg i.v. twice q week; most mice, during the 2nd week of treatment; dose too high.
The subject of series [16] is A549 non-small cell lung carcinoma xenograft. The following applies: mouse, in vivo.
Series [17] shares this test system. Briefly: A549 non-small cell lung carcinoma xenograft, (−)-gossypol with paclitaxel. The note with it: Table 13; paclitaxel 15 mg/kg i.p. twice q week for 3 weeks, alone.

With `N.N.[Cl][Pt][Cl]` [Cisplatin, cisplatin, reference compound], the IC50 was 25 µM in series [1]; 30 µM in series [2]; greater than 50 µM in [3]; 5 µM in series [4]; 22 µM in series [5]; 22 µM in series [6]. Moreover, the IC50 was 13 µM in [7]; 29 µM in [8]; 12 µM in [9]; 43 µM in series [10]; greater than 50 µM in series [11]; greater than 50 µM in series [12]. Also, the IC50 in [13] was greater than 50 µM. For the same molecule, the “time after CDDP treatment stopped when mice started to gain back the weight” value in [14] is on record as “to gain back the weight 1-2 weeks”. For the same molecule, the “mortality in cisplatin treated group” value in [15] is given as “mice were dead in the cisplatin”.
Turning to `CC(=O)O[C@H]1C(=O)[C@@]2(C)[C@H]([C@H](OC(=O)c3ccccc3)[C@]3(O)C[C@H](OC(=O)[C@H](O)[C@@H](NC(=O)c4ccccc4)c4ccccc4)C(C)=C1C3(C)C)[C@]1(OC(C)=O)CO[C@@H]1C[C@@H]2O` [Paclitaxel], the weight loss result in [16] is reported as “There was no weight loss in mice”. Besides, the tumor growth inhibition entry in [17] is “achieved about 67% tumor growth”.

The IC50 is the point on the concentration scale where inhibition reaches its midpoint.
